For the assay, the system named is B16 melanoma. Nature of the assay: Tumor growth and survival of mice which have a B16 melanoma. It counts as in vivo, mouse. Particulars: for inhibition of tumor growth: mice with subcutaneous B16 melanoma, dose of 300 mg/kg. The procedure: A melanoma is induced in a mouse by subcutaneous injection of tumor cells (B16 cells).
The tumor develops within 10 days in the subcutaneous position (ventral face of the thigh). The size of the tumor is measured with a caliper rule and its volume is estimated according to the formula V=L×w×w, in which L represents the length and w represents the width. Various compounds of the invention were administered to mice having received syngenic melanoma cells (B16) at a dose of 300 mg/kg.

Take “METHYL 6-O-HYDROGENOPHOSPHONATE-α-D-MANNO-PYRANOSIDE [compound 4e]”: the “inhibition of tumor growth” value came to 40%.

With “6-(METHYL 6-DEOXY-α-D-MANNOPYRANOSIDE) BORONIC ACID [compound 7f]”, the “inhibition of tumor growth” value is listed as 65%. For the same substance, the “mortality in treated mouse group” value (after 18 days of treatment, 300 mg/kg, nontreated mouse group 40% mortality) is “no mortality”.

Source of the values: US20130164387A9, “NOVEL MANNOPYRANOSIDE DERIVATIVES WITH ANTICANCER ACTIVITY” (Centre National De La Recherche Scientifique, priority 2009, published 2013).
